From patent US10219516B2, “Molecules having pesticidal utility, and intermediates, compositions, and processes, related thereto” (priority 2015, dated 2019)
Where a name gives a salt, the structure may show the parent alone.

Columns and labels:
Format in all cases: in vivo
[1] = system: Yellow Fever Mosquito (Aedes aegypti, AEDSAE); experiment: Bioassay on Yellow Fever Mosquito (YFM), 96-well plate larval assay; conditions: Yellow Fever Mosquito, 96-well plate larval assay
Outline: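 Aedes aegypti larvae (about 1 day old) in liver-powder water were added to plates dispensed from DMSO master plates (4000 ppm stock) diluted with 90:10 water/acetone; six replicate plates per master. Lidded plates were held at room temperature for 3 days, then each well was scored for mortality.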

[2] = system: Beet Armyworm (Spodoptera exigua, LAPHEG); experiment: Bioassay on Beet Armyworm (BAW), 128-well diet tray assay; conditions: Beet Armyworm, 128-well diet tray assay, read-out: BAW rating
Outline: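 Diet tray, 8 wells/compound; 50 μg/cm^2 applied to diet surface (90:10 acetone-water), dried. 1–5 L2 larvae/well; 25° C., 14:10 L:D, 5–7 d. Read-out: % mortality, mean of 8 wells.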

[3] = system: Cabbage Looper (Trichoplusia ni, TRIPNI); experiment: Bioassay on Cabbage Looper (CL), 128-well diet tray assay; conditions: Trichoplusia ni; Cabbage Looper, 128-well diet tray assay; read-out: CL rating
Outline: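 Mortality of second instar larvae exposed to diet coated with 50 μg/cm^2 compound (acetone-water 90:10 vehicle, dried); 25° C., 5–7 days.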

## O=C(Nc1ccc(S(=O)(=O)CC(F)(F)F)cc1)c1cc(NC(=O)[C@H]2[C@H](c3cc(Cl)cc(Cl)c3)C2(Cl)Cl)ccc1Cl (relative stereo) [PF17, trans-2-chloro-5-(2,2-dichloro-3-(3,5-dichlorophenyl)cyclopropane-1-carboxamido)-N-(4-((2,2,2-trifluoroethyl)sulfonyl)phenyl)benzamide]
[1]
  YFM rating: B (More than 0-Less than 80)
[2]
  pest or weed control at 50 µg/cm2: 50 to 100%
[3]
  pest or weed control at 50 µg/cm2: 50 to 100%

## O=C(Nc1ccc([S+]([O-])CC(F)(F)F)cc1)c1cc(NC(=O)[C@H]2[C@H](c3cc(Cl)cc(Cl)c3)C2(Cl)Cl)ccc1Cl (relative stereo) [PF18, trans-2-Chloro-5-(2,2-dichloro-3-(3,5-dichlorophenyl)cyclopropane-1-carboxamido)-N-(4-((2,2,2-trifluoroethyl)sulfinyl)phenyl)benzamide]
[1]
  YFM rating: B (More than 0-Less than 80)
[2]
  pest or weed control at 50 µg/cm2: 50 to 100%
[3]
  pest or weed control at 50 µg/cm2: 50 to 100%

## O=C(Nc1ccc(S(=O)(=O)C(F)(F)F)cc1)c1cc(NC(=O)[C@H]2[C@H](c3cc(Cl)cc(Cl)c3)C2(Cl)Cl)ccc1Cl (relative stereo) [PF19, trans-2-Chloro-5-(2,2-dichloro-3-(3,5-dichlorophenyl)cyclopropane-1-carboxamido)-N-(4-((trifluoromethyl)sulfonyl)phenyl)benzamide]
[1]
  YFM rating: A (80-100)
[2]
  pest or weed control at 50 µg/cm2: 50 to 100%
[3]
  pest or weed control at 50 µg/cm2: 50 to 100%

## O=C(Nc1ccc([S+]([O-])C(F)(F)F)cc1)c1cc(NC(=O)[C@H]2[C@H](c3cc(Cl)cc(Cl)c3)C2(Cl)Cl)ccc1Cl (relative stereo) [PF20, trans-2-Chloro-5-(2,2-dichloro-3-(3,5-dichlorophenyl)cyclopropane-1-carboxamido)-N-(4-((trifluoromethyl)sulfinyl)phenyl)benzamide]
[1]
  YFM rating: A (80-100)
[2]
  pest or weed control at 50 µg/cm2: 50 to 100%
[3]
  pest or weed control at 50 µg/cm2: 50 to 100%

## Cl.Nc1ccc(NC(=O)c2cc(NC(=O)[C@H]3[C@H](c4cc(Cl)cc(Cl)c4)C3(Cl)Cl)ccc2Cl)cc1 (relative stereo) [PF21, trans-N-(4-aminophenyl)-2-chloro-5-(2,2-dichloro-3-(3,5-dichlorophenyl)cyclopropane-1-carboxamido)benzamide hydrochloride]
[1]
  YFM rating: A (80-100)
[2]
  pest or weed control at 50 µg/cm2: 50 to 100%
[3]
  pest or weed control at 50 µg/cm2: 50 to 100%

## CNc1ccc(NC(=O)c2cc(NC(=O)[C@H]3[C@H](c4cc(Cl)cc(Cl)c4)C3(Cl)Cl)ccc2Cl)cc1 (relative stereo) [PF22, trans-2-Chloro-5-(2,2-dichloro-3-(3,5-dichlorophenyl)cyclopropane-1-carboxamido)-N-(4-(methylamino)phenyl)benzamide hydrochloride]
[1]
  YFM rating: A (80-100)
[2]
  pest or weed control at 50 µg/cm2: 50 to 100%
[3]
  pest or weed control at 50 µg/cm2: 50 to 100%

## O=C(Nc1ccc(NC(=O)C(F)(F)F)cc1)c1cc(NC(=O)[C@H]2[C@H](c3cc(Cl)cc(Cl)c3)C2(Cl)Cl)ccc1Cl (relative stereo) [PF24, trans-2-chloro-5-(2,2-dichloro-3-(3,5-dichlorophenyl)cyclopropane-1-carboxamido)-N-(4-(2,2,2-trifluoroacetamido)phenyl)benzamide]
[1]
  YFM rating: A (80-100)
[2]
  pest or weed control at 50 µg/cm2: 50 to 100%
[3]
  pest or weed control at 50 µg/cm2: 50 to 100%

## O=C(CC(F)(F)F)Nc1ccc(NC(=O)c2cc(NC(=O)[C@H]3[C@H](c4cc(Cl)cc(Cl)c4)C3(Cl)Cl)ccc2Cl)cc1 (relative stereo) [PF25, trans-2-chloro-5-(2,2-dichloro-3-(3,5-dichlorophenyl)cyclopropane-1-carboxamido)-N-(4-(3,3,3-trifluoropropanamido)phenyl)benzamide]
[1]
  YFM rating: B (More than 0-Less than 80)
[2]
  pest or weed control at 50 µg/cm2: 50 to 100%
[3]
  pest or weed control at 50 µg/cm2: 50 to 100%

## C=CC(=O)Nc1ccc(NC(=O)c2cc(NC(=O)[C@H]3[C@H](c4cc(Cl)cc(Cl)c4)C3(Cl)Cl)ccc2Cl)cc1 (relative stereo) [PF26, trans-N-(4-Acrylamidophenyl)-2-chloro-5-(2,2-dichloro-3-(3,5-dichlorophenyl)cyclopropane-1-carboxamido)benzamide]
[1]
  YFM rating: A (80-100)
[2]
  pest or weed control at 50 µg/cm2: 50 to 100%
[3]
  pest or weed control at 50 µg/cm2: 50 to 100%

## CN(C(=O)CC(F)(F)F)c1ccc(NC(=O)c2cc(NC(=O)[C@H]3[C@H](c4cc(Cl)cc(Cl)c4)C3(Cl)Cl)ccc2Cl)cc1 (relative stereo) [PF30, trans-2-Chloro-5-(2,2-dichloro-3-(3,5-dichlorophenyl)cyclopropane-1-carboxamido)-N-(4-(3,3,3-trifluoro-N-methylpropanamido)phenyl)benzamide]
[1]
  YFM rating: B (More than 0-Less than 80)
[2]
  pest or weed control at 50 µg/cm2: 50 to 100%
[3]
  pest or weed control at 50 µg/cm2: 50 to 100%

## C[C@]1(c2ccc(OC(F)(F)F)cc2)[C@H](C(=O)Nc2ccc(Cl)c(C(=O)Nc3ccc(F)cc3)c2)C1(Cl)Cl (relative stereo) [PF32, trans-2-Chloro-5-(2,2-dichloro-3-methyl-3-(4-(trifluoromethoxy)phenyl)cyclopropanecarboxamido)-N-(4-fluorophenyl)benzamide]
[1]
  YFM rating: A (80-100)
[2]
  pest or weed control at 50 µg/cm2: 50 to 100%
[3]
  pest or weed control at 50 µg/cm2: 50 to 100%

## O=C(Nc1ccc(F)cc1)c1cc(NC(=O)[C@H]2[C@H](c3cc(Cl)cc(Br)c3)C2(Cl)Cl)ccc1Cl (relative stereo) [PF37, 5-(trans-3-(3-Bromo-5-chlorophenyl)-2,2-dichlorocyclopropane-1-carboxamido)-2-chloro-N-(4-fluorophenyl)benzamide]
[1]
  YFM rating: B (More than 0-Less than 80)
[2]
  pest or weed control at 50 µg/cm2: 50 to 100%
[3]
  pest or weed control at 50 µg/cm2: 50 to 100%

## CC(=O)Nc1ccc(NC(=O)c2cc(NC(=O)[C@H]3[C@H](c4cc(Cl)cc(Cl)c4)C3(Cl)Cl)ccc2Cl)c(F)c1 (relative stereo) [PF40, trans-N-(4-Acetamido-2-fluorophenyl)-2-chloro-5-(2,2-dichloro-3-(3,5-dichlorophenyl)cyclopropane-1-carboxamido)benzamide]
[1]
  YFM rating: A (80-100)
[2]
  pest or weed control at 50 µg/cm2: 50 to 100%
[3]
  pest or weed control at 50 µg/cm2: 50 to 100%

## CC(=O)Nc1ccc(NC(=O)c2cc(NC(=O)[C@H]3[C@H](c4cc(Cl)c(Cl)c(Cl)c4)C3(Cl)Cl)ccc2Cl)c(F)c1 (relative stereo) [PF42, trans-N-(4-Acetamido-2-fluorophenyl)-2-chloro-5-(2,2-dichloro-3-(3,4,5-trichlorophenyl)cyclopropane-1-carboxamido)benzamide]
[1]
  YFM rating: A (80-100)
[2]
  pest or weed control at 50 µg/cm2: 50 to 100%
[3]
  pest or weed control at 50 µg/cm2: 50 to 100%

## Cc1cc(NC(=O)c2cc(NC(=O)[C@H]3[C@H](c4cc(Cl)cc(Cl)c4)C3(Cl)Cl)ccc2Cl)ccc1F (relative stereo) [PF44, trans-2-Chloro-5-(2,2-dichloro-3-(3,5-dichlorophenyl)cyclopropane-1-carboxamido)-N-(4-fluoro-3-methylphenyl)benzamide]
[1]
  YFM rating: A (80-100)
[2]
  pest or weed control at 50 µg/cm2: 50 to 100%
[3]
  pest or weed control at 50 µg/cm2: 50 to 100%

## Cc1cc(F)ccc1NC(=O)c1cc(NC(=O)[C@H]2[C@H](c3ccc(Cl)c(Cl)c3)C2(Cl)Cl)ccc1Cl (relative stereo) [PF46, trans-2-Chloro-5-(2,2-dichloro-3-(3,4-dichlorophenyl)cyclopropane-1-carboxamido)-N-(4-fluoro-2-methylphenyl)benzamide]
[1]
  YFM rating: A (80-100)
[2]
  pest or weed control at 50 µg/cm2: 50 to 100%
[3]
  pest or weed control at 50 µg/cm2: 50 to 100%

## Cc1cc(F)ccc1NC(=O)c1cc(NC(=O)[C@H]2[C@H](c3ccc(F)c(Cl)c3)C2(Cl)Cl)ccc1Cl (relative stereo) [PF48, trans-2-Chloro-5-(2,2-dichloro-3-(3-chloro-4-fluorophenyl)cyclopropane-1-carboxamido)-N-(4-fluoro-2-methylphenyl)benzamide]
[1]
  YFM rating: A (80-100)
[2]
  pest or weed control at 50 µg/cm2: 50 to 100%
[3]
  pest or weed control at 50 µg/cm2: 50 to 100%

## Cc1cc(F)ccc1N(C)C(=O)c1cc(NC(=O)[C@H]2[C@H](c3cc(Cl)cc(Cl)c3)C2(Cl)Cl)ccc1Cl (relative stereo) [PF49, trans-2-Chloro-5-(2,2-dichloro-3-(3,5-dichlorophenyl)cyclopropane-1-carboxamido)-N-(4-fluoro-2-methylphenyl)-N-methylbenzamide]
[1]
  YFM rating: B (More than 0-Less than 80)
[2]
  pest or weed control at 50 µg/cm2: 50 to 100%
[3]
  pest or weed control at 50 µg/cm2: 50 to 100%

## Cc1cc(F)ccc1N(C)C(=O)c1cc(NC(=O)[C@H]2[C@H](c3ccc(F)c(Cl)c3)C2(Cl)Cl)ccc1Cl (relative stereo) [PF50, trans-2-Chloro-5-(2,2-dichloro-3-(3-chloro-4-fluorophenyl)cyclopropane-1-carboxamido)-N-(4-fluoro-2-methylphenyl)-N-methylbenzamide]
[1]
  YFM rating: A (80-100)
[2]
  pest or weed control at 50 µg/cm2: 50 to 100%
[3]
  pest or weed control at 50 µg/cm2: 50 to 100%

## COc1cc(NC(=O)c2cc(NC(=O)[C@H]3[C@H](c4cc(Cl)cc(Cl)c4)C3(Cl)Cl)ccc2Cl)ccc1F (relative stereo) [PF52, trans-2-Chloro-5-(2,2-dichloro-3-(3,5-dichlorophenyl)cyclopropane-1-carboxamido)-N-(4-fluoro-3-methoxyphenyl)benzamide]
[1]
  YFM rating: A (80-100)
[2]
  pest or weed control at 50 µg/cm2: 50 to 100%
[3]
  pest or weed control at 50 µg/cm2: 50 to 100%
